# Data: patent US20230129485A1, “SYSTEM AND METHOD FOR DETERMINING MATERIAL PROPERTIES OF MOLECULAR SYSTEMS FROM AN AB-INITIO PARAMETERIZED FORCE-FIELD” (InterX, Inc., priority 2021, published 2023)
# Read-outs that look alike come from different tables or passages of the source.
# How the values were obtained:
# [1] = CHEX/H2O partition coefficient (log D) predicted with the QM-parameterized force field model (ARROW FF)
# In short: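 Cyclohexane/water partition coefficients were predicted by molecular simulation with a QM-parameterized force field, with bonded force constants and equilibrium values fitted to MP2/aug-cc-pVTZ energies. Solutes carried neutral functional groups, and results from four independent groups were averaged.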
# [2] = Free energy of hydration by Polarizable Continuum Model (PCM); settings: absolute error vs Exp (hydration)
# In short: (§1)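 Implicit-solvent predictions of hydration free energy. MolPro supplied the COSMO solvation energies across the dataset. Predicted SMD and PCM values were received rather than computed here. Coverage for SMD, PCM and COSMO-RS matches the QM-parameterized force-field subset.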
# [3] = implicit solvent model, values received; cited from earlier work
# [4] = experimental, cited from earlier work
# [5] = Free energy of hydration predicted with the QM-parameterized force field model (ARROW FF), classical MD and PIMD simulation in a water box; settings: for Arrow PIMD8 Error: absolute error vs Exp (hydration)
# In short: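 Classical and PIMD runs (MTS integrator, MTTK barostat at 1 atm) followed minimization and 50 ps equilibration, with 1 ns NPT production per window. Fifteen unequally spaced lambda windows removed all solute-solvent interactions simultaneously in a 32 Å water box. Hydration free energy computed by Bennett acceptance ratio and thermodynamic integration.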
# [6] = Free energy of hydration by Solvation Model Dielectric (SMD) implicit solvent model; settings: absolute error vs Exp (hydration)
# In short: as §1
# [7] = CHEX/H2O partition coefficient, experimental, cited from earlier work; for Exp (log D): Table 3
# [8] = Free energy of hydration by Free Energy Machine Learning Model (FML); settings: absolute error vs Exp (hydration)
# Text: Machine learning models can be used for free energy determination.
# [9] = experimental, cited from earlier work; remark: listed apart in the source
# [10] = Free energy of hydration by COSMO implicit solvent model (MolPro ver. 2012); settings: absolute error vs Exp (hydration)
# In short: as §1
# [11] = Free energy of hydration by COSMO-RS
# In short: as §1
# [12] = implicit solvent model, values received; cited from earlier work; remark: listed apart in the source
# [13] = Free energy of solvation in cyclohexane predicted with the QM-parameterized force field model (ARROW FF), MD and PIMD; settings: Table 4
# In short: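 Solute–cyclohexane interactions decoupled over 15 λ points with soft-core scaling, in MD and path-integral simulations under NPT at 1 atm using PME electrostatics and 9 Å cutoffs. Each window had 50 ps equilibration and 1 ns production; free energies from BAR and TI.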
# [14] = Table 3, free energy of solvation in cyclohexane
# [15] = Table 3, absolute error of MD hydration free energy vs experiment
# [16] = Table 3, absolute error of PIMD8 hydration free energy vs experiment
# [17] = Table 3, free energy of hydration
# [18] = Table 3, absolute error of MD log D vs experiment
# [19] = Table 3, absolute error of PIMD log D vs experiment
Structure (SMILES),log D Arrow MD Error [1],log D Arrow PIMD Error [1],PCM Error [2] [kJ/mol],SMD free energy of hydration [3] [kJ/mol],"CHEX Exp (solvation) [4, 14] [kJ/mol]","water Arrow MD Error [5, 15] [kJ/mol]","water Arrow PIMD8 Error [5, 16] [kJ/mol]",Arrow PIMD8 Error [5] [kJ/mol],SMD Error [6] [kJ/mol],Exp (log D) [7],FML error [8] [kJ/mol],"water Exp (hydration) [9, 17] [kJ/mol]",COSMO/Molpro Error [10] [kJ/mol],COSMO-RS error [11] [kJ/mol],PCM free energy of hydration [12] [kJ/mol],"log D Arrow MD Error [1, 18]","log D Arrow PIMD Error [1, 19]",further results
CCCC(C)=O [2-Pentanone],0.22,0.20,2.01,-15.5,-17.5,2.8,0.042,0.042,0.753,0.49,1.21,-14.7,17.7,0.29,-16.7,–,–,–
CCC(=O)CC [3-Pentanone],0.32,0.02,1.21,-14.6,-18,3.68,0.962,0.962,0.38,0.65,0.669,-14.3,13.9,0.25,-15.5,–,–,–
CC(C)=O [Acetone],–,–,1.67,-17.2,-11.2,1.38,1.3,1.3,1.26,−0.83,1.42,-15.9,19,3.77,-17.6,0.01,0.31,–
CCCCOC(C)=O [ButylAcetate],–,–,5.23,-12.1,-20.7,3.56,0.29,0.29,1.46,1.75,2.55,-10.7,17.5,–,-15.9,0.60,0.06,–
CCOC(C)=O [EthylAcetate],0.46,0.13,2.43,-13,-14.9,1.17,1.34,1.34,0.084,0.32,0.084,-13.1,16.5,–,-15.5,–,–,–
CCC(=O)OC [MethylPropionate],–,–,2.38,-11.3,-15.5,2.59,0.418,0.418,0.962,0.57,0.837,-12.3,15.7,–,-14.6,0.84,0.45,–
CCCOC(C)=O [PropylAcetate],0.65,0.37,3.93,-12.6,-18.2,2.68,0.29,0.29,0.586,1.10,1,-12,17.2,–,-15.9,–,–,–
CCCCC(C)=O [hexa2none],–,–,3.01,-14.6,-20,2.89,0.837,0.837,0.92,1.09,0.29,-13.7,18.5,0.711,-16.7,0.07,0.11,–
Cc1cccc(O)c1 [m-cresol],–,–,6.23,-20.1,-21.8,8.87,4.31,4.31,2.89,−0.21,3.01,-23,16.6,–,-16.7,0.65,0.09,–
Cc1ccccc1O [o-cresol],–,–,9.08,-19.2,-25.2,5.31,1.17,1.17,5.31,0.11,0.795,-24.6,5.06,–,-15.5,0.67,0.14,hydration error ([5]; predicted vs experimental free energy of hydration): -4.2 kJ/mol
CCC(N)=O [propionamide],–,–,–,–,–,5.06,0.711,0.711,–,–,9.25,-39.3,14.6,–,–,–,–,"logD Arrow MD Error ([1]; Table 4, error of MD logD vs experiment): 0.54; logD Arrow PIMD Error ([1]; Table 4, error of PIMD logD vs experiment): 0.12; CHEX Exp (solvation) ([4]; Table 4, solvation free energy in cyclohexane): -15.8 kJ/mol; water Arrow MD Error ([5]; Table 4, error of MD hydration free energy vs experiment): 5.06 kJ/mol; water Arrow PIMD8 Error ([5]; Table 4, error of PIMD8 hydration free energy vs experiment): 0.711 kJ/mol; CHEX Arrow MD Error ([13]; error of MD cyclohexane solvation free energy vs experiment): 2.01 kJ/mol; CHEX Arrow PIMD4 Error ([13]; error of PIMD4 cyclohexane solvation free energy vs experiment): 1.42 kJ/mol; logD Exp (logD) ([7]; Table 4): −4.13; water Exp (hydration) ([9]; Table 4, neutral amino-acid analogues): -39.3 kJ/mol"
